Data: patent US10125100B2, “Kinase inhibitors” (Respivert Limited, priority 2014, dated 2018)

Tested on: Jurkat cells
Test: (r) Cell cytotoxicity assay
Format: cell-based, human
Conditions: 24 hours
Experimental: 1×10^5 Jurkat cells (immortalised human T lymphocytes) are added to the appropriate number of wells of a 96 well plate in 100 μL of media (RPMI supplemented with 10% foetal bovine serum). 1 μL of DMSO control (final concentration 1.0% v/v) or test compound (final concentration 20, 5 or 1 μg/mL) is added to the wells and incubated at 37° C., 5% CO2. After 24 hours, the plate is centrifuged at 1200 rpm for 3 minutes and the supernatant discarded. Cells are then resuspended in 150 μL (final concentration 7.5 μg/mL) of propidium iodide (PI) in PBS and incubated at 37° C., 5% CO2 for 15 minutes. After 15 minutes, cells are analysed by flow cytometry (BD accuri) using the FL3 window. The % viability is calculated as the % of cells that are PI negative in the test wells normalised to the DMSO control.

| Compound | % Viability at 1 μg/mL | % Viability at 5 μg/mL | % Viability at 20 μg/mL |
| --- | --- | --- | --- |
| COc1cc(Nc2cc(Oc3ccc(NC(=O)Nc4cc(C(C)(C)C)cc(NS(C)(=O)=O)c4OC)c4ccccc34)ccn2)ccc1C(=O)NCC(CO)(CO)CO [Example 38, 4-((4-((4-(3-(5-(tert-Butyl)-2-methoxy-3-(methylsulfonamido)phenyl)ureido)naphthalen-1-yl)oxy)pyridin-2-yl)amino)-N-(3-hydroxy-2,2-bis(hydroxymethyl)propyl)-2-methoxybenzamide] | 90.0% | 63.7% | 6.0% |
| COc1cc(Nc2cc(Oc3ccc(NC(=O)Nc4cc(C(C)(C)C)cc(C(N)=O)c4OC)c4ccccc34)ccn2)ccc1C(=O)O [Example 3, 4-((4-((4-(3-(5-(tert-Butyl)-3-carbamoyl-2-methoxyphenyl)ureido)naphthalen-1-yl)oxy)pyridin-2-yl)amino)-2-methoxybenzoic acid] | 93.4% | 95.9% | 91.9% |
| COc1cc(Nc2cc(Oc3ccc(NC(=O)Nc4cc(C(C)(C)C)cc(NS(C)(=O)=O)c4OC)c4ccccc34)ccn2)ccc1-c1nn[nH]n1 [Example 24, N-(5-(tert-Butyl)-2-methoxy-3-(3-(4-((2-((3-methoxy-4-(2H-tetrazol-5-yl)phenyl)amino)pyridin-4-yl)oxy)naphthalen-1-yl)ureido)phenyl)methanesulfonamide] | 104.3% | 92.4% | 9.7% |
| COc1c(NC(=O)Nc2ccc(Oc3ccnc(Nc4ccc(P(C)(=O)O)c(N(C)C)c4)c3)c3ccccc23)cc(C(C)(C)C)cc1NS(C)(=O)=O [Example 68, [4-[[4-[[4-[[5-tert-Butyl-3-(methanesulfonamido)-2-methoxy-phenyl]carbamoylamino]-1-naphthyl]oxy]-2-pyridyl]amino]-2-(dimethylamino)phenyl]-methyl-phosphinic acid] | 95.6% | 92.7% | 90.2% |
| COc1cc(Nc2cc(Oc3ccc(NC(=O)Nc4cc(C(C)(C)C)cc(NS(C)(=O)=O)c4OC)c4ccccc34)ccn2)ccc1C(=O)NCCN1CCN(C(C)C)CC1 [17(bf), 4-((4-((4-(3-(5-(tert-Butyl)-2-methoxy-3-(methylsulfonamido)phenyl)ureido)naphthalen-1-yl)oxy)pyridin-2-yl)amino)-N-(2-(4-isopropylpiperazin-1-yl)ethyl)-2-methoxybenzamide] | 90.7% | 1.5% | 0.6% |
| COc1cc(Nc2nccc(Oc3ccc(NC(=O)Nc4cc(C(C)(C)C)cc(NS(C)(=O)=O)c4OC)c4ccccc34)n2)ccc1S(N)(=O)=O [Example 28, 4-((4-((4-(3-(5-(tert-Butyl)-2-methoxy-3-(methylsulfonamido)phenyl)ureido)naphthalen-1-yl)oxy)pyrimidin-2-yl)amino)-2-methoxybenzenesulfonamide] | 100.0% | 41.1% | 18.9% |
| COc1cc(Nc2cc(Oc3ccc(NC(=O)Nc4cc(C(C)(C)C)cc(NS(C)(=O)=O)c4OC)c4ccccc34)ccn2)ccc1C(=O)NCCN1CC[C@@H](O)C1 [17(cr), (R)-4-((4-((4-(3-(5-(tert-Butyl)-2-methoxy-3-(methylsulfonamido)phenyl)ureido)-naphthalen-1-yl)oxy)pyridin-2-yl)amino)-N-(2-(3-hydroxypyrrolidin-1-yl)ethyl)-2-methoxybenzamide] | 81.1% | 18.0% | 0.9% |
| COc1cc(Nc2cc(Oc3ccc(NC(=O)Nc4cc(C(C)(C)C)cc(NS(C)(=O)=O)c4OC)c4ccccc34)ccn2)ccc1C(=O)NCCNC(=O)CCC(=O)O [17(cd), 4-((2-(4-((4-((4-(3-(5-(tert-Butyl)-2-methoxy-3-(methylsulfonamido)phenyl)ureido)-naphthalen-1-yl)oxy)pyridin-2-yl)amino)-2-methoxybenzamido)ethyl)amino)-4-oxobutanoic acid] | 96.4% | 96.5% | 91.4% |
| COc1cc(Nc2nccc(Oc3ccc(NC(=O)Nc4cc(C(C)(C)C)cc(NS(C)(=O)=O)c4OC)c4ccccc34)n2)ccc1C(=O)NCCCN1CCOCC1 [17(ao), 4-((4-((4-(3-(5-(tert-Butyl)-2-methoxy-3-(methylsulfonamido)phenyl)ureido)naphthalen-1-yl)oxy)pyrimidin-2-yl)amino)-2-methoxy-N-(3-morpholinopropyl)benzamide] | 89.2% | 16.5% | 1.6% |
| COc1cc(Nc2cc(Oc3ccc(NC(=O)Nc4cc(C(C)(C)C)cc(NS(C)(=O)=O)c4OC)c4ccccc34)ccn2)ccc1S(=O)(=O)N(C)CCN1CCN(C)CC1 [17(bb), 4-((4-((4-(3-(5-(tert-Butyl)-2-methoxy-3-(methylsulfonamido)phenyl)ureido)naphthalen-1-yl)oxy)pyridin-2-yl)amino)-2-methoxy-N-methyl-N-(2-(4-methylpiperazin-1-yl)ethyl)benzenesulfonamide] | 90.9% | 19.2% | 0.2% |
| COc1cc(Nc2cc(Oc3ccc(NC(=O)Nc4cc(C(C)(C)C)cc(NS(C)(=O)=O)c4OC)c4ccccc34)ccn2)ccc1C(=O)N[C@@H]1CCN(C)C1 [17(cq), (R)-4-((4-((4-(3-(5-(tert-Butyl)-2-methoxy-3-(methylsulfonamido)phenyl)ureido)-naphthalen-1-yl)oxy)pyridin-2-yl)amino)-2-methoxy-N-(1-methylpyrrolidin-3-yl)benzamide] | 74.3% | 9.0% | 0.7% |
| COc1cc(Nc2nccc(Oc3ccc(NC(=O)Nc4cc(C(C)(C)C)cc(NS(C)(=O)=O)c4OC)c4ccccc34)n2)ccc1C(=O)NCCN1CCN(C)CC1 [17(aq), 4-((4-((4-(3-(5-(tert-Butyl)-2-methoxy-3-(methylsulfonamido)phenyl)ureido)naphthalen-1-yl)oxy)pyrimidin-2-yl)amino)-2-methoxy-N-(2-(4-methylpiperazin-1-yl)ethyl)benzamide] | 95.1% | 0.2% | 1.3% |
| COc1cc(Nc2cc(Oc3ccc(NC(=O)Nc4cc(C(C)(C)C)cc(NS(C)(=O)=O)c4OC)c4ccccc34)ccn2)ccc1C(=O)N(C)CCN1CCN(C)CC1 [17(bh), 4-((4-((4-(3-(5-(tert-Butyl)-2-methoxy-3-(methylsulfonamido)phenyl)ureido)naphthalen-1-yl)oxy)pyridin-2-yl)amino)-2-methoxy-N-methyl-N-(2-(4-methylpiperazin-1-yl)ethyl)benzamide] | 99.5% | 67.8% | 0.6% |
| COc1cc(Nc2cc(Oc3ccc(NC(=O)Nc4cc(C(C)(C)C)cc(NS(C)(=O)=O)c4OC)c4ccccc34)ccn2)ccc1C(=O)NC(C)CN1CCN(C)CC1 (stereo not drawn) [17(bl), 4-((4-((4-(3-(5-(tert-Butyl)-2-methoxy-3-(methylsulfonamido)phenyl)ureido)naphthalen-1-yl)oxy)pyridin-2-yl)amino)-2-methoxy-N-(1-(4-methylpiperazin-1-yl)propan-2-yl)benzamide] | 103.6% | 0.2% | 0.5% |
| COc1cc(Nc2cc(Oc3ccc(NC(=O)Nc4cc(C(C)(C)C)cc(NS(C)(=O)=O)c4OC)c4ccccc34)ccn2)ccc1C(=O)NCC[N+]1([O-])CCOCC1 [Example 33, 4-(2-(4-((4-((4-(3-(5-(tert-Butyl)-2-methoxy-3-(methylsulfonamido)phenyl)ureido)naphthalen-1-yl)oxy)pyridin-2-yl)amino)-2-methoxybenzamido)ethyl)morpholine 4-oxide] | 104.1% | 95.5% | 69.3% |
| COc1cc(Nc2cc(Oc3ccc(NC(=O)Nc4cc(C(C)(C)C)cc(NS(C)(=O)=O)c4OC)c4ccccc34)ccn2)ccc1C(=O)NCC(=O)O [17(ar), 2-(4-((4-((4-(3-(5-(tert-Butyl)-2-methoxy-3-(methylsulfonamido)phenyl)ureido)naphthalen-1-yl)oxy)pyridin-2-yl)amino)-2-methoxybenzamido)acetic acid] | 96.1% | 96.2% | 95.3% |
| CCC(=O)NS(=O)(=O)c1ccc(Nc2nccc(Oc3ccc(NC(=O)Nc4cc(C(C)(C)C)cc(NS(C)(=O)=O)c4OC)c4ccccc34)n2)cc1OC [17(bk), N-((4-((4-((4-(3-(5-(tert-Butyl)-2-methoxy-3-(methylsulfonamido)phenyl)ureido)-naphthalen-1-yl)oxy)pyrimidin-2-yl)amino)-2-methoxyphenyl)sulfonyl)propionamide] | 93.0% | 71.8% | 65.6% |
| COc1cc(Nc2cc(Oc3ccc(NC(=O)Nc4cc(NS(C)(=O)=O)cc(C(C)(C)C)c4)c4ccccc34)ccn2)ccc1C(=O)NCCN1CCN(C)CC1 [17(bo), 4-((4-((4-(3-(3-(tert-Butyl)-5-(methylsulfonamido)phenyl)ureido)naphthalen-1-yl)oxy)pyridin-2-yl)amino)-2-methoxy-N-(2-(4-methylpiperazin-1-yl)ethyl)benzamide] | 98.5% | 45.3% | 14.0% |
